# Measured values as given in ChEMBL document CHEMBL1133439, “Synthesis and biological evaluation of enantiopure thionitrites: the solid-phase synthesis and nitrosation of D-glutathione as a molecular probe” (Bioorg Med Chem Lett, 2000).
# Key:
# Rattus norvegicus [1] = organism: Rattus norvegicus; assay: Effective concentration required for relaxation of rat aortic rings; assay type: functional; conditions: Aorta
# Rattus norvegicus [2] = organism: Rattus norvegicus; assay: Percentage Inhibition of relaxation of phenylephrine-induced tone in rat aortic smooth muscle at ~1000 nM; assay type: functional, Aorta
# Rattus norvegicus [3] = organism: Rattus norvegicus; assay: Percentage Inhibition of relaxation of phenylephrine-induced tone in rat aortic smooth muscle at ~100 nM; assay type: functional, Aorta
# Rattus norvegicus [4] = organism: Rattus norvegicus; assay: Percentage Inhibition of relaxation of phenylephrine-induced tone in rat aortic smooth muscle at ~5000 nM; assay type: functional, Aorta
# Rattus norvegicus [5] = organism: Rattus norvegicus; assay: Percentage Inhibition of relaxation of phenylephrine-induced tone in rat aortic smooth muscle at ~600 nM; assay type: functional, Aorta
# Rattus norvegicus [6] = organism: Rattus norvegicus; assay: Percentage Inhibition of relaxation of phenylephrine-induced tone in rat aortic smooth muscle at ~10000 nM; assay type: functional, Aorta
# Rattus norvegicus [7] = organism: Rattus norvegicus; assay: Percentage Inhibition of relaxation of phenylephrine-induced tone in rat aortic smooth muscle at ~10 nM; assay type: functional, Aorta
# Rattus norvegicus [8] = organism: Rattus norvegicus; assay: Percentage Inhibition of relaxation of phenylephrine-induced tone in rat aortic smooth muscle at ~500 nM; assay type: functional, Aorta
EC50 (Rattus norvegicus [1]),Structure (SMILES),Inhibition (Rattus norvegicus [2]),Inhibition (Rattus norvegicus [3]),other results
290 nM,N[C@H](CCC(=O)N[C@H](CSN=O)C(=O)NCC(=O)O)C(=O)O,80%,25%,Inhibition (Rattus norvegicus [4]): 100%; Inhibition (Rattus norvegicus [5]): 50%
492 nM,CC(=O)N[C@@H](C(=O)O)C(C)(C)SN=O,–,–,–
108 nM,N[C@@H](CCC(=O)N[C@@H](CSN=O)C(=O)NCC(=O)O)C(=O)O [S-NITROSOGLUTATHIONE],90%,50%,Inhibition (Rattus norvegicus [6]): 100%; Inhibition (Rattus norvegicus [7]): 20%; Inhibition (Rattus norvegicus [8]): 80%

# The next lines start with the molecule.
Structure (SMILES),EC50 (Rattus norvegicus [1]),Inhibition (Rattus norvegicus [2]),Inhibition (Rattus norvegicus [3]),other results
N[C@@H](CSN=O)C(=O)O,2 nM,–,–,–
CC(=O)N[C@H](C(=O)O)C(C)(C)SN=O,476 nM,–,–,–
N[C@H](CSN=O)C(=O)O,2.1 nM,–,–,–
